{
  "source": "paper PMC4792470",
  "about": "“A Novel Manno-Oligosaccharide Binding Protein Identified in Alkaliphilic Bacillus sp. N16-5 Is Involved in Mannan Utilization” (PLoS ONE, 2016)",
  "data": [
    {"target": "T1, ManH (Bacillus sp. N16-5, UniProt A0A140EH86)", "T1 construct": "without N-terminal signal peptide; pET-28a NcoI/BamHI, native stop codon in primer; E. coli BL21(DE3); anion exchange; primers give N-terminus (M)DENTGGN and C-terminus SLEGIE; full-length starts MNKKLWL by primer", "T1 sequence (A0A140EH86 17-435)": "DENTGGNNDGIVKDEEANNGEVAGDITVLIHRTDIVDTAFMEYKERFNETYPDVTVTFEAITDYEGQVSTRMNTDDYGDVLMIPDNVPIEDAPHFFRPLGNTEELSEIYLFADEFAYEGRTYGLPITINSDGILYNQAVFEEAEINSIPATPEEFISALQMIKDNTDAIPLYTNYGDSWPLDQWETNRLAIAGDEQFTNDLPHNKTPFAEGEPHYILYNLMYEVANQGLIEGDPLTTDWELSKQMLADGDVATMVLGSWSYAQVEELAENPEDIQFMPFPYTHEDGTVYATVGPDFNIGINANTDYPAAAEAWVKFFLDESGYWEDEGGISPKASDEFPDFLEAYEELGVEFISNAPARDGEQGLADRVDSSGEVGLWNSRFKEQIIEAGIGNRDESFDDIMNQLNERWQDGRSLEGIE", "experiment": "isothermal titration calorimetry", "type": "binding", "settings": "20 mM Tris-HCl pH 8.0, 200 mM NaCl, 30 °C; independent-site model", "from_the_text": "isothermal titration calorimetry on ManH", "units": {"Kd (1/Ka, μM)": "µM"}, "values": [
      {"compound": "OC[C@H]1O[C@@H](O[C@H]2[C@H](O)[C@H](O)[C@H](O[C@H]3[C@H](O)[C@H](O)[C@H](O[C@H]4[C@H](O)[C@H](O)[C@H](O[C@H]5[C@H](O)[C@H](O)C(O)O[C@@H]5CO)O[C@@H]4CO)O[C@@H]3CO)O[C@@H]2CO)[C@@H](O)[C@@H](O)[C@@H]1O", "note": "(stereo partly shown) [mannopentose]", "Kd (1/Ka, μM)": 0.8},
      {"compound": "OC[C@H]1O[C@@H](O[C@H]2[C@H](O)[C@H](O)[C@H](O[C@H]3[C@H](O)[C@H](O)[C@H](O[C@H]4[C@H](O)[C@H](O)C(O)O[C@@H]4CO)O[C@@H]3CO)O[C@@H]2CO)[C@@H](O)[C@@H](O)[C@@H]1O", "note": "(stereo partly shown) [mannotetraose]", "Kd (1/Ka, μM)": 2.2},
      {"compound": "OC[C@H]1O[C@@H](O[C@H]2[C@H](O)[C@H](O)[C@H](O[C@H]3[C@H](O)[C@H](O)C(O)O[C@@H]3CO)O[C@@H]2CO)[C@@H](O)[C@@H](O)[C@@H]1O", "note": "(stereo partly shown) [mannotriose]", "Kd (1/Ka, μM)": 3.8},
      {"compound": "galactosyl-mannotriose", "Kd (1/Ka, μM)": 19.4}
    ]}
  ]
}
